The assay deals with T1, SFRP-1 (Homo sapiens, UniProt Q8N474).
T1 sequence (Q8N474 32-314): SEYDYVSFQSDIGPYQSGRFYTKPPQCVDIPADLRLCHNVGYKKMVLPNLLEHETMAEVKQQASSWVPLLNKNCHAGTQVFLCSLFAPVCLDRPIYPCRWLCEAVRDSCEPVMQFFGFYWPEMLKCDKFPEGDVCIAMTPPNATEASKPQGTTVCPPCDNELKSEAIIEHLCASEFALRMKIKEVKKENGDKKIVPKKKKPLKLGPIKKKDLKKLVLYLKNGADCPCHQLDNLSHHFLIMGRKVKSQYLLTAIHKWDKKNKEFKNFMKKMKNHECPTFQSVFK
Put plainly: Cell-based assay for in vitro measurement of SFRP-1/SARP2 antagonist activity (U2OS cells co-transfected with 16x TCF-tk-Luciferase reporter, Wnt and hSFRP-1).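 Further: U2OS cells co-transfected with a TCF-tk luciferase reporter, a Wnt vector, hSFRP-1 or empty vector and CMV-βgal, luciferase luminescence read in cell lysates alongside βgal activity.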 Particulars: U2OS. Background: Reporter assays use an easily measured gene product as a stand-in for the process of interest.

Setting [1] is: read-out: Fold Induction with SFRP-1, Conc 15 μM, with SFRP-1, fold induction over SFRP-1 control, single dose.
Where [2] appears, read: read-out: Fold Induction without SFRP-1, Conc 15 μM, without SFRP-1, single dose.

Read-outs that look alike come from different tables or passages of the source.

Consider `C#CCN(CCc1ccccc1F)S(=O)(=O)c1cc(S(=O)(=O)c2ccc(C)cc2)ccc1C` [Example 277, N-[2-(2-fluorophenyl)ethyl]-2-methyl-5-[(4-methylphenyl)sulfonyl]-N-prop-2-ynylbenzenesulfonamide], for which the fold induction at 15 µM under setting [1] was 1.8 and the fold induction at 15 µM under setting [2] is 1.
On the same counts, the results for `Cc1ccc(S(=O)(=O)c2ccccc2)cc1S(=O)(=O)N(C)CCc1ccccc1` [Example 278, N,2-dimethyl-N-(2-phenylethyl)-5-(phenylsulfonyl)benzenesulfonamide] are 1 and 0.9.
Take `Cc1ccc(S(=O)(=O)c2ccccc2)cc1S(=O)(=O)N1CCN(CC(=O)N2CCCC2)CC1` [Example 279, 1-{[2-methyl-5-(phenylsulfonyl)phenyl]sulfonyl}-4-(2-oxo-2-pyrrolidin-1-ylethyl)piperazine]: the fold induction at 15 µM is 1.9 under setting [1] and 1 under setting [2].
Take `CCN(CC)CCN1CCN(S(=O)(=O)c2cc(S(=O)(=O)c3ccccc3)ccc2C)CC1` [Example 280, N,N-diethyl-N-[2-(4-{[2-methyl-5-(phenylsulfonyl)phenyl]sulfonyl}piperazin-1-yl)ethyl]amine]: the fold induction at 15 µM under setting [1] was 2.7 and the fold induction at 15 µM under setting [2] was determined as 1.5.
In the case of `Cc1ccc(S(=O)(=O)c2ccccc2)cc1S(=O)(=O)N1CCN(CCN2CCOCC2)CC1` [Example 281, 4-[2-(4-{[2-methyl-5-(phenylsulfonyl)phenyl]sulfonyl}piperazin-1-yl)ethyl]morpholine], the fold induction at 15 µM reads like this: under setting [1], 2.8; under setting [2], 1.3.
For the compound `Cc1ccc(S(=O)(=O)c2ccccc2)cc1S(=O)(=O)N1CCN(CCN2CCCC2)CC1` [Example 282, 1-{[2-methyl-5-(phenylsulfonyl)phenyl]sulfonyl}-4-(2-pyrrolidin-1-ylethyl)piperazine], the fold induction at 15 µM reads like this: under setting [1], 2.4; under setting [2], 1.6.
In the case of `Cc1ccc(S(=O)(=O)c2ccccc2)cc1S(=O)(=O)N1CCN(CCCN2CCOCC2)CC1` [Example 283, 4-[3-(4-{[2-methyl-5-(phenylsulfonyl)phenyl]sulfonyl}piperazin-1-yl)propyl]morpholine], the fold induction at 15 µM under setting [1] worked out at 1.8 and the fold induction at 15 µM under setting [2] was 1.3.
In the case of `CCc1ccc(S(=O)(=O)c2ccccc2)cc1S(=O)(=O)N(C)CCc1ccccc1` [Example 284, 2-ethyl-N-methyl-N-(2-phenylethyl)-5-(phenylsulfonyl)benzenesulfonamide], the fold induction at 15 µM came to 1.1 under setting [1] and 1.2 under setting [2].
Turning to `CCc1ccc(S(=O)(=O)c2ccccc2)cc1S(=O)(=O)N1CCN(CC(=O)N2CCCC2)CC1` [Example 285, 1-{[2-ethyl-5-(phenylsulfonyl)phenyl]sulfonyl}-4-(2-oxo-2-pyrrolidin-1-ylethyl)piperazine], the fold induction at 15 µM under setting [1] was 2 and the fold induction at 15 µM under setting [2] was 1.1.
For the compound `CCc1ccc(S(=O)(=O)c2ccccc2)cc1S(=O)(=O)N1CCN(CCN(CC)CC)CC1` [Example 286, N,N-diethyl-N-[2-(4-{[2-ethyl-5-(phenylsulfonyl)phenyl]sulfonyl}piperazin-1-yl)ethyl]amine], the fold induction at 15 µM is, setting by setting: under setting [1], 2; under setting [2], 1.3.
Take `CCc1ccc(S(=O)(=O)c2ccccc2)cc1S(=O)(=O)N1CCN(CCN2CCOCC2)CC1` [Example 287, 4-[2-(4-{[2-ethyl-5-(phenylsulfonyl)phenyl]sulfonyl}piperazin-1-yl)ethyl]morpholine]: the fold induction at 15 µM was determined as 2.1 under setting [1] and 1.2 under setting [2].
Regarding `CCc1ccc(S(=O)(=O)c2ccccc2)cc1S(=O)(=O)N1CCN(CCN2CCCC2)CC1` [Example 288, 1-{[2-ethyl-5-(phenylsulfonyl)phenyl]sulfonyl}-4-(2-pyrrolidin-1-ylethyl)piperazine], the fold induction at 15 µM runs as follows: under setting [1], 3.6; under setting [2], 1.7.
For the compound `CCc1ccc(S(=O)(=O)c2ccccc2)cc1S(=O)(=O)N1CCN(CCCN2CCOCC2)CC1` [Example 289, 4-[3-(4-{[2-ethyl-5-(phenylsulfonyl)phenyl]sulfonyl}piperazin-1-yl)propyl]morpholine], the fold induction at 15 µM reads like this: under setting [1], 2.3; under setting [2], 1.1.
For the compound `Cc1ccc(S(=O)(=O)c2ccc(Cl)cc2)cc1S(=O)(=O)NCCN1CCOCC1` [Example 290, 5-[(4-chlorophenyl)sulfonyl]-2-methyl-N-(2-morpholin-4-ylethyl)benzenesulfonamide], the fold induction at 15 µM came to 1.9 under setting [1] and 0.8 under setting [2].
`Cc1ccc(S(=O)(=O)c2ccc(Cl)cc2)cc1S(=O)(=O)NCCc1ccccn1` [Example 291, 5-[(4-chlorophenyl)sulfonyl]-2-methyl-N-(2-pyridin-2-ylethyl)benzenesulfonamide]: the fold induction at 15 µM under setting [1] came to 1.7 and the fold induction at 15 µM under setting [2] came out at 0.9.
Taken in the same sequence, the figures for `Cc1ccc(S(=O)(=O)c2ccc(Cl)cc2)cc1S(=O)(=O)NCCCn1ccnc1` [Example 292, 5-[(4-chlorophenyl)sulfonyl]-N-[3-(1H-imidazol-1-yl)propyl]-2-methylbenzenesulfonamide] were 2.3 and 0.8.
Take `Cc1ccc(S(=O)(=O)c2ccc(N=[N+]=[N-])cc2)cc1S(=O)(=O)NCCCn1ccnc1` [Example 293, 5-[(4-azidophenyl)sulfonyl]-N-[3-(1H-imidazol-1-yl)propyl]-2-methylbenzenesulfonamide]: the fold induction at 15 µM reads like this: under setting [1], 2.5; under setting [2], 0.9.
`Cc1ccc(S(=O)(=O)c2ccccc2)cc1S(=O)(=O)NCCc1c[nH]c2ccccc12` [Example 294, N-[2-(1H-indol-3-yl)ethyl]-2-methyl-5-(phenylsulfonyl)benzenesulfonamide]: the fold induction at 15 µM under setting [1] was found to be 2.3 and the fold induction at 15 µM under setting [2] amounted to 1.5.
As to `Cc1ccc(S(=O)(=O)c2ccccc2)cc1S(=O)(=O)NCCC1CCOCC1` [Example 299, 2-methyl-5-(phenylsulfonyl)-N-(2-tetrahydro-2H-pyran-4-ylethyl)benzenesulfonamide], the fold induction at 15 µM came out at 3.1 under setting [1] and 1.1 under setting [2].
As to `CCc1ccc(S(=O)(=O)c2ccccc2)cc1S(=O)(=O)NC1CCOCC1` [Example 300, 2-ethyl-5-(phenylsulfonyl)-N-tetrahydro-2H-pyran-4-ylbenzenesulfonamide], the fold induction at 15 µM amounted to 3.4 under setting [1] and 1.2 under setting [2].
Taken in the same sequence, the figures for `CCc1ccc(S(=O)(=O)c2ccccc2)cc1S(=O)(=O)NCCC1CCOCC1` [Example 301, 2-ethyl-5-(phenylsulfonyl)-N-(2-tetrahydro-2H-pyran-4-ylethyl)benzenesulfonamide] were 3.3 and 1.2.
As to `Cc1c(S(=O)(=O)NCCc2ccccc2)cccc1S(=O)(=O)c1ccccc1` [Example 302, 2-methyl-N-(2-phenylethyl)-3-(phenylsulfonyl)benzenesulfonamide], the fold induction at 15 µM under setting [1] was 1.2 and the fold induction at 15 µM under setting [2] was 1.2.
As for `CCN(C)c1ccc(S(=O)(=O)c2ccc(C)c(S(=O)(=O)NCCCn3ccnc3)c2)cc1` [Example 304, 5-({4-[ethyl(methyl)amino]phenyl}sulfonyl)-N-[3-(1H-imidazol-1-yl)propyl]-2-methylbenzenesulfonamide], the fold induction at 15 µM was found to be 1.7 under setting [1] and 1 under setting [2].

The values are drawn from patent US20060276464A1, “Diarylsulfone sulfonamides and use thereof” (Wyeth, priority 2005, published 2006).
